The source of these data is US6218417A, “Ace-inhibitor nitric salts” (priority 1997, dated 2001).

Counter-ions that a name gives are not always drawn.

Series [1] relates to angiotensin-I-induced hypertension. The experiment in a line: Antihypertensive activity: inhibition of angiotensin I-induced hypertension (Laubie et al.). The format is in vivo, rats. The note with it: angiotensin I 100 μg/Kg i.v. How it is done: The antihypertensive activity of the nitrate salts of the compounds of the invention was determined in accordance with the method of Laubie et al., J. Cardiovasc. Pharmacol. 6, 1076, 1984. No 6 rats weighing about 200 to 250 g were used per experimental group. Four groups were formed, which were intraperitoneally treated respectively as shown below:
The doses are referred to the amount of Enalapril (cation) in the salt. The antihypertensive response was evaluated as per-cent inhibition of the hypertension induced by the administration of a dose of 100 μg/Kg i.v. of angiotensin I as described in the above article.

The test system of series [2] is bronchial spasm induced by substance P. The experiment in a line: Bronchial spasm induced by substance P (Subissi et al.; Konzett). It counts as in vivo, female Guinea pigs. The note with it: for Tidal air change % in bronchial spasm induced by substance P: 30 minutes before substance P (200 μg/Kg). As to the method:
Activity was evaluated measuring the strengthening of bronchial spasm induced by substance P, determined in accordance with the method of Subissi et al., Br. J. Pharmacol. 100, 502-6, 1990. The model described by Subissi is predictive of bronchial side effects due to the administration of ACE inhibitors.
Four groups (6 animals/group) of female Guinea pigs weighing about 300 to 400 g were anaesthetised with ethyl urethane (200 mg/Kg) under artificial pressure at constant positive pressure. The compounds were administered intra-peritoneally 30 minutes before substance P. The salt doses administered were the same as in Example 4. The changes in tidal air were then measured in accordance wuth the method of Konzett, Arch. Exp. Pathol. Pharmacol. 195, 71, 1940, before and after the administration of substance P (200 μg/Kg), with or without the test salts, i.e. Enalapril maleate and nitrate.

For series [3], the system named is platelet aggregation (collagen-induced). The experiment in a line: Platelet-antiaggregating activity, in-vivo collagen model (Pinon et al.). The note with it: 10 mg/Kg/os per day (as Enalapril cation) for five days; collagen 2 mg/Kg i.v.; referred to control group. Also on record: species or system rats. How it is done:
The in-vivo model described by Pinon et al., J. Pharm. Methods 12, 79-84, 1984, was used.
Two groups of 6 rats each, weighing about 200 to 250 g, were treated with an oral. dose of 10 mg/Kg/die of Enalapril maleate or nitrate respectively (the dose is referred to the amount of Enalapril cation in the salt) for five days, while a third group acted as a control group. About 18 hours before the last treatment, the animals were fasted. One hour after this treatment the animals were anaesthetised with 10% ethyl urethane (1 g/Kg intraperitoneally) and the left jugular vein and the right carotid artery were cannulated. Collagen (type 6, Sigma) was then administered intravenously at a dose of 2 mg/Kg. Three minutes later two blood samples, A and B, were collected from the carotid artery of each animal.
1.6 ml of EDTA/formalin buffer (24 mM tetrasodium EDTA, 1.3 mM KH2 PO4, 13.4 mM Na2 HPO4) was added to the first sample (sample A) containing 0.4 ml of blood.
The second blood sample (sample B) had the same volume as the previous sample (0.4 ml of blood) but, instead of the buffer, 1.6 ml of a saline solution (physiological NaCl solution) was added. […]
A microscope platelet count was then performed. […] The results shown in Table III are expressed as a % of platelet aggregation and are referred to the % value obtained in the control group.

Setting [4] is: 100 μg/Kg/i.p. (as Enalapril cation).
[5] abbreviates: 300 μg/Kg/i.p. (as Enalapril cation).

Turning to `CCOC(=O)[C@H](CCc1ccccc1)N[C@@H](C)C(=O)N1CCC[C@H]1C(=O)O` [Enalapril maleate, reference compound], the results for the “Inhibition % for angiotensin-I-induced hypertension” value in series [1] (setting [4]) and in series [1] (setting [5]) were 18% and 55%, respectively. The figures for the “Tidal air change % in bronchial spasm induced by substance P” value in series [2] (100 μg/Kg/i.p.) and in series [2] (300 μg/Kg/i.p.) were “+16%” and “+28%”, respectively. This compound displayed an Antiaggregating activity % in series [3] of 5%.
As to `CCOC(=O)[C@H](CCc1ccccc1)N[C@@H](C)C(=O)N1CCC[C@H]1C(=O)O` [Enalapril nitrate, (S)-1-[N-[1-(ethoxycarbonyl)-3-phenylpropyl]-L-alanyl]-L-proline], the “Inhibition % for angiotensin-I-induced hypertension” value in series [1] (setting [4]) turned out to be 35%; in series [1] (setting [5]) it was 67%. The “Tidal air change % in bronchial spasm induced by substance P” value is listed as -5% in series [2] (100 μg/Kg/i.p.) and -7% in series [2] (300 μg/Kg/i.p.). Also, the Respiratory profile entry in series [2] (compared to Enalapril maleate, 100 and 300 μg/Kg i.p.) is “better respiratory profile than Enalapril maleate at both tested doses”. For the same compound, in series [3], the Antiaggregating activity % turned out to be 58%.
